Test results: US20210395651A1, “COMPOUNDS STABILIZING HYDROLASES IN LIQUIDS” (BASF SE, priority 2018, published 2021)

These compounds were tested against T1, Lipolase® 100L (Thermomyces lanuginosus, UniProt O59952) (assay: Lipase storage stability in liquid formulations at 37° C. (pNP-valerate activity)). Conditions: base formulation I. (Lipolase 0.2 wt%, tested compound 2.5 wt%); 3 d storage at 37° C.
T1 construct: purchased Sigma-Aldrich
T1 sequence (O59952 23-291): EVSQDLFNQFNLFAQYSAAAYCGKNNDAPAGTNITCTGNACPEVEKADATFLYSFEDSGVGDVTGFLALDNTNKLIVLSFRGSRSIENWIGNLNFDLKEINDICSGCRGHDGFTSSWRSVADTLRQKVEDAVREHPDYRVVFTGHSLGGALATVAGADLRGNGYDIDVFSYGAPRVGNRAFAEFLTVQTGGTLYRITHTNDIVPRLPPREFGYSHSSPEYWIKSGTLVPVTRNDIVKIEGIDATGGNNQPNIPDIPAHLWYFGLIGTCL
Type: biochemical, Thermomyces lanuginosa
Procedure: The storage stability of Lipase was assessed at 37° C.
Base test formulations were manufactured by making base formulations I to V by mixing the components according to Table 1.
The respective component (a) or comparative compound was added, if applicable, to the respective base formulation in amounts as indicated in Table 1.
Lipase used: Lipolase® 100L (CAS-No. 9001-62-1, EC-No. 232-619-9) was purchased from Sigma-Aldrich.
The amount of lipase as provided in Table 1 refers to active protein.
Water was added to accomplish the balance to 100.
Lipolase activity at certain points in time as indicated in Table 2 was be determined by employing pNitrophenol-valerate (2.4 mM pNP-C5 in 100 mM Tris pH 8.0, 0.01% Triton X100) as a substrate. The absorption at 405 nm was measured at 20° C. every 30 seconds over 5 minutes.
The slope (absorbance increase at 405 nm per minute) of the time dependent absorption-curve is directly proportional to the activity of the lipase.
The […] activity values provided in Table 2 were calculated referring to the 100% value determined in the reference formulation at the time 0.
The nomenclature of formulations is as follows: the Roman number before the full stop characterizes the base formulation, the Arabian number the type of compound (A.# compound according to invention (component (a)); (B.#) comparative compound).

| Compound | lipase activity, 3 d |
| --- | --- |
| CC(=O)OCC(COC(C)=O)OC(C)=O [B.4, glyceroltriacetate (triacetine), reference compound] | 91% |

Same assay, conditions: base formulation I. (Lipolase 0.2 wt%, tested compound 2.5 wt%); 7 d storage at 37° C.

| Compound | lipase activity, 7 d |
| --- | --- |
| CC(=O)OCC(COC(C)=O)OC(C)=O [B.4, glyceroltriacetate (triacetine), reference compound] | 84% |

Same assay, conditions: base formulation I. (Lipolase 0.2 wt%, tested compound 2.5 wt%); 14 d storage at 37° C.

| Compound | lipase activity, 14 d |
| --- | --- |
| CC(=O)OCC(COC(C)=O)OC(C)=O [B.4, glyceroltriacetate (triacetine), reference compound] | 72% |

Same assay, conditions: base formulation I. (Lipolase 0.2 wt%, tested compound 2.5 wt%); 21 d storage at 37° C.

| Compound | lipase activity, 21 d |
| --- | --- |
| CC(=O)OCC(COC(C)=O)OC(C)=O [B.4, glyceroltriacetate (triacetine), reference compound] | 56% |

Same assay, conditions: base formulation I. (Lipolase 0.2 wt%, tested compound 2.5 wt%); 28 d storage at 37° C.

| Compound | lipase activity, 28 d |
| --- | --- |
| CC(=O)OCC(COC(C)=O)OC(C)=O [B.4, glyceroltriacetate (triacetine), reference compound] | 45% |

Same assay, conditions: base formulation I. (Lipolase 0.2 wt%, tested compound 2.5 wt%); 35 d storage at 37° C.

| Compound | lipase activity, 35 d |
| --- | --- |
| CC(=O)OCC(COC(C)=O)OC(C)=O [B.4, glyceroltriacetate (triacetine), reference compound] | 39% |

Same assay, conditions: base formulation I. (Lipolase 0.2 wt%, tested compound 2.5 wt%); T0; relative to 100% value of reference formulation at time 0

| Compound | lipase activity, T0 |
| --- | --- |
| CC(=O)OCC(COC(C)=O)OC(C)=O [B.4, glyceroltriacetate (triacetine), reference compound] | 98% |

Same assay, conditions: base formulation II. (Lipolase 0.2 wt%, tested compound 2.5 wt%); 3 d storage at 37° C.

| Compound | lipase activity, 3 d |
| --- | --- |
| CC(=O)OCC(COC(C)=O)OC(C)=O [B.4, glyceroltriacetate (triacetine), reference compound] | 87% |
| CCOC(=O)CC(O)(CC(=O)O)C(=O)O (stereo not drawn) [A.6, Monoethylcitrate] | 100% |

Same assay, conditions: base formulation II. (Lipolase 0.2 wt%, tested compound 2.5 wt%); 7 d storage at 37° C.

| Compound | lipase activity, 7 d |
| --- | --- |
| CC(=O)OCC(COC(C)=O)OC(C)=O [B.4, glyceroltriacetate (triacetine), reference compound] | 77% |
| CCOC(=O)CC(O)(CC(=O)O)C(=O)O (stereo not drawn) [A.6, Monoethylcitrate] | 95% |

Same assay, conditions: base formulation II. (Lipolase 0.2 wt%, tested compound 2.5 wt%); 14 d storage at 37° C.

| Compound | lipase activity, 14 d |
| --- | --- |
| CC(=O)OCC(COC(C)=O)OC(C)=O [B.4, glyceroltriacetate (triacetine), reference compound] | 67% |
| CCOC(=O)CC(O)(CC(=O)O)C(=O)O (stereo not drawn) [A.6, Monoethylcitrate] | 91% |

Same assay, conditions: base formulation II. (Lipolase 0.2 wt%, tested compound 2.5 wt%); 21 d storage at 37° C.

| Compound | lipase activity, 21 d |
| --- | --- |
| CC(=O)OCC(COC(C)=O)OC(C)=O [B.4, glyceroltriacetate (triacetine), reference compound] | 56% |
| CCOC(=O)CC(O)(CC(=O)O)C(=O)O (stereo not drawn) [A.6, Monoethylcitrate] | 84% |

Same assay, conditions: base formulation II. (Lipolase 0.2 wt%, tested compound 2.5 wt%); 28 d storage at 37° C.

| Compound | lipase activity, 28 d |
| --- | --- |
| CC(=O)OCC(COC(C)=O)OC(C)=O [B.4, glyceroltriacetate (triacetine), reference compound] | 42% |
| CCOC(=O)CC(O)(CC(=O)O)C(=O)O (stereo not drawn) [A.6, Monoethylcitrate] | 80% |

Same assay, conditions: base formulation II. (Lipolase 0.2 wt%, tested compound 2.5 wt%); 35 d storage at 37° C.

| Compound | lipase activity, 35 d |
| --- | --- |
| CC(=O)OCC(COC(C)=O)OC(C)=O [B.4, glyceroltriacetate (triacetine), reference compound] | 35% |
| CCOC(=O)CC(O)(CC(=O)O)C(=O)O (stereo not drawn) [A.6, Monoethylcitrate] | 71% |

Same assay, conditions: base formulation II. (Lipolase 0.2 wt%, tested compound 2.5 wt%); T0; relative to 100% value of reference formulation at time 0

| Compound | lipase activity, T0 |
| --- | --- |
| CC(=O)OCC(COC(C)=O)OC(C)=O [B.4, glyceroltriacetate (triacetine), reference compound] | 95% |
| CCOC(=O)CC(O)(CC(=O)O)C(=O)O (stereo not drawn) [A.6, Monoethylcitrate] | 102% |

Same assay, conditions: base formulation III. (Lipolase 0.2 wt%, tested compound 2.0 wt%); 3 d storage at 37° C.

| Compound | lipase activity, 3 d |
| --- | --- |
| CCOC(=O)CC(O)(CC(=O)O)C(=O)O (stereo not drawn) [A.6, Monoethylcitrate] | 96% |

Same assay, conditions: base formulation III. (Lipolase 0.2 wt%, tested compound 2.0 wt%); 7 d storage at 37° C.

| Compound | lipase activity, 7 d |
| --- | --- |
| CCOC(=O)CC(O)(CC(=O)O)C(=O)O (stereo not drawn) [A.6, Monoethylcitrate] | 91% |

Same assay, conditions: base formulation III. (Lipolase 0.2 wt%, tested compound 2.0 wt%); 14 d storage at 37° C.

| Compound | lipase activity, 14 d |
| --- | --- |
| CCOC(=O)CC(O)(CC(=O)O)C(=O)O (stereo not drawn) [A.6, Monoethylcitrate] | 87% |

Same assay, conditions: base formulation III. (Lipolase 0.2 wt%, tested compound 2.0 wt%); 21 d storage at 37° C.

| Compound | lipase activity, 21 d |
| --- | --- |
| CCOC(=O)CC(O)(CC(=O)O)C(=O)O (stereo not drawn) [A.6, Monoethylcitrate] | 82% |

Same assay, conditions: base formulation III. (Lipolase 0.2 wt%, tested compound 2.0 wt%); 28 d storage at 37° C.

| Compound | lipase activity, 28 d |
| --- | --- |
| CCOC(=O)CC(O)(CC(=O)O)C(=O)O (stereo not drawn) [A.6, Monoethylcitrate] | 79% |

Same assay, conditions: base formulation III. (Lipolase 0.2 wt%, tested compound 2.0 wt%); 35 d storage at 37° C.

| Compound | lipase activity, 35 d |
| --- | --- |
| CCOC(=O)CC(O)(CC(=O)O)C(=O)O (stereo not drawn) [A.6, Monoethylcitrate] | 74% |

Same assay, conditions: base formulation III. (Lipolase 0.2 wt%, tested compound 2.0 wt%); T0; relative to 100% value of reference formulation at time 0

| Compound | lipase activity, T0 |
| --- | --- |
| CCOC(=O)CC(O)(CC(=O)O)C(=O)O (stereo not drawn) [A.6, Monoethylcitrate] | 96% |

Same assay, conditions: base formulation IV. (Lipolase 0.2 wt%, tested compound 2.0 wt%); 3 d storage at 37° C.

| Compound | lipase activity, 3 d |
| --- | --- |
| CC(=O)OCC(COC(C)=O)OC(C)=O [B.4, glyceroltriacetate (triacetine), reference compound] | 91% |
| CCOC(=O)CC(O)(CC(=O)O)C(=O)O (stereo not drawn) [A.6, Monoethylcitrate] | 96% |

Same assay, conditions: base formulation IV. (Lipolase 0.2 wt%, tested compound 2.0 wt%); 7 d storage at 37° C.

| Compound | lipase activity, 7 d |
| --- | --- |
| CC(=O)OCC(COC(C)=O)OC(C)=O [B.4, glyceroltriacetate (triacetine), reference compound] | 82% |
| CCOC(=O)CC(O)(CC(=O)O)C(=O)O (stereo not drawn) [A.6, Monoethylcitrate] | 92% |

Same assay, conditions: base formulation IV. (Lipolase 0.2 wt%, tested compound 2.0 wt%); 14 d storage at 37° C.

| Compound | lipase activity, 14 d |
| --- | --- |
| CC(=O)OCC(COC(C)=O)OC(C)=O [B.4, glyceroltriacetate (triacetine), reference compound] | 73% |
| CCOC(=O)CC(O)(CC(=O)O)C(=O)O (stereo not drawn) [A.6, Monoethylcitrate] | 89% |

Same assay, conditions: base formulation IV. (Lipolase 0.2 wt%, tested compound 2.0 wt%); 21 d storage at 37° C.

| Compound | lipase activity, 21 d |
| --- | --- |
| CC(=O)OCC(COC(C)=O)OC(C)=O [B.4, glyceroltriacetate (triacetine), reference compound] | 59% |
| CCOC(=O)CC(O)(CC(=O)O)C(=O)O (stereo not drawn) [A.6, Monoethylcitrate] | 86% |

Same assay, conditions: base formulation IV. (Lipolase 0.2 wt%, tested compound 2.0 wt%); 28 d storage at 37° C.

| Compound | lipase activity, 28 d |
| --- | --- |
| CC(=O)OCC(COC(C)=O)OC(C)=O [B.4, glyceroltriacetate (triacetine), reference compound] | 50% |
| CCOC(=O)CC(O)(CC(=O)O)C(=O)O (stereo not drawn) [A.6, Monoethylcitrate] | 85% |

Same assay, conditions: base formulation IV. (Lipolase 0.2 wt%, tested compound 2.0 wt%); 35 d storage at 37° C.

| Compound | lipase activity, 35 d |
| --- | --- |
| CC(=O)OCC(COC(C)=O)OC(C)=O [B.4, glyceroltriacetate (triacetine), reference compound] | 46% |
| CCOC(=O)CC(O)(CC(=O)O)C(=O)O (stereo not drawn) [A.6, Monoethylcitrate] | 78% |

Same assay, conditions: base formulation IV. (Lipolase 0.2 wt%, tested compound 2.0 wt%); T0; relative to 100% value of reference formulation at time 0

| Compound | lipase activity, T0 |
| --- | --- |
| CC(=O)OCC(COC(C)=O)OC(C)=O [B.4, glyceroltriacetate (triacetine), reference compound] | 97% |
| CCOC(=O)CC(O)(CC(=O)O)C(=O)O (stereo not drawn) [A.6, Monoethylcitrate] | 98% |
